Reference: patent US4174451A, “2-Furyl-(3,4-dimethyl-2-pyridyl)-carbinol” (Laboratorios Made, S.A., priority 1977, dated 1979)

Experiments:
Swiss I.C.R. albino mice [1] = experiment: Thermal analgesia, 55° C. Hot Plate technique; type: in vivo; details: for Jumping time in sec. x ± S.E.M.: 30 minutes after administration, batches of 10 mice, mean ± S.E.M., control 63.7 ± 4.54; for Signif. of differences vs Control (jumping time): p value
Experimental: The thermal analgesic effect was studied in Swiss I.C.R. albino mice. The 55° C. Hot Plate technique was used. Batches of 10 mice were used.
The products under study were administered intraperitoneally, and after 30 minutes the mice were placed on the hot plate, count being made of the time, in seconds, it took them to jump. Batches of control animals were injected only with distilled water.

Swiss I.C.R. albino mice [2] = experiment: Chemical analgesia, acetic acid writhing technique; type: in vivo; details: for No. of writhes x ± S.E.M.: 30 minutes before 0.25 ml of 1% acetic acid i.p., counted twenty minutes later, batches of 10 mice, control 78.4 ± 6.7
Experimental: The analgesic effect was studied in Swiss I.C.R. albino mice, by the acetic acid writhing technique. Batches of 10 mice were made.
The products under study were administered intraperitoneally, and 30 minutes later 0.25 ml of 1% acetic acid was injected intraperitoneally. A batch of control animals received only the acetic acid. Twenty minutes following administration of the acetic acid, the number of writhes in each mouse was counted.

[3] = Acute toxicity in mice (LD50, Litchfield-Wilcoxon test); parameters: species or system Swiss I.C.R. albino mice; details: mouse, in vivo, ip; intraperitoneal, deaths counted 48 hours after treatment, both sexes, fasted 24 hours
Experimental: An acute toxicity study was made on Swiss I.C.R. albino mice of both sexes of 30± 2 g in weight, kept without food for 24 hours prior to the experiment. Ambient temperature and relative humidity were kept constant. The products were administered intraperitoneally, the number of deaths being counted 48 hours after treatment. The lethal dose (LD50) was calculated by the Litchfield-Wilcoxon test.

[4] = p value, 30 mg/kg intraperitoneal
[5] = in words, compared with dextropropoxyphene

SMILES | Jumping time in sec. x ± S.E.M. (Swiss I.C.R. albino mice [1]; 30 mg/kg intraperitoneal) | Signif. of differences vs Control (jumping time) (Swiss I.C.R. albino mice [1]; 30 mg/kg intraperitoneal) | No. of writhes x ± S.E.M. (Swiss I.C.R. albino mice [2]; 30 mg/kg intraperitoneal) | Signif. of differences vs Control (writhes) (Swiss I.C.R. albino mice [2]; [4]) | Signif. of differences vs Dextroprop. (jumping time) (Swiss I.C.R. albino mice [1]; 30 mg/kg intraperitoneal, vs dextropropoxyphene 30 mg/kg, N.S.) | thermal analgesic action (Swiss I.C.R. albino mice [1]; [5]) | chemical analgesic action (Swiss I.C.R. albino mice [2]; [5]) | Signif. of differences vs Dextroprop. (writhes) (Swiss I.C.R. albino mice [2]; p value, 30 mg/kg intraperitoneal, vs dextropropoxyphene 30 mg/kg) | LD50 at 48 h [3]
CCC(=O)O[C@](Cc1ccccc1)(c1ccccc1)[C@H](C)CN(C)C [Dextropropoxyphene, dextropropoxyphene, reference compound] | 116.8 ± 12.43 s | < 0.01 | 8.4 ± 4.04 | < 0.00005 |  |  |  |  | 
Cc1ccnc(C(O)c2ccco2)c1C (stereo not shown) [Product I, 2-furyl-(3,4-dimethyl-2-pyridyl)-carbinol] | 110.1 ± 13.28 s | < 0.005 | 53 ± 6.07 | < 0.02 | N.S. | same thermal analgesic action as the dextropropoxyphene | chemical analgesic action, but of lesser intensity than that of dextropropoxyphene | < 0.00005 | 309 mg/kg
